Results: PubChem BioAssay (NCI)
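Each compound was tested at five concentrations against cells in 96-well plates for 48 hours. GI50 marks 50% less growth. At the TGI there is no net growth.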

Key:
Assay in all cases: NCI anticancer screen, dose series, 48 h; in the data active = GI50 below about 0.43 µM; inactive = the rest
[1] = test system: 786-0 renal
[2] = test system: A498 renal
[3] = test system: A549 NSCLC
[4] = test system: ACHN renal
[5] = test system: CAKI-1 renal
[6] = test system: CCRF-CEM leukemia
[7] = test system: COLO 205 colon
[8] = test system: DU-145 prostate
[9] = test system: EKVX NSCLC
[10] = test system: HCC-2998 colon
[11] = test system: HCT-116 colon
[12] = test system: HCT-15 colon
[13] = test system: HL-60(TB) leukemia
[14] = test system: HOP-62 NSCLC
[15] = test system: HOP-92 NSCLC
[16] = test system: HS 578T breast
[17] = test system: HT29 colon
[18] = test system: IGROV1 ovarian
[19] = test system: K-562 leukemia
[20] = test system: KM12 colon
[21] = test system: LOX IMVI melanoma
[22] = test system: M14 melanoma
[23] = test system: MALME-3M melanoma
[24] = test system: MCF7 breast
[25] = test system: MDA-MB-231 breast
[26] = test system: MDA-MB-435
[27] = test system: MOLT-4 leukemia
[28] = test system: NCI-H226 lung
[29] = test system: NCI-H23 lung
[30] = test system: NCI-H460 lung
[31] = test system: NCI-H522 lung
[32] = test system: NCI/ADR-RES ovarian
[33] = test system: OVCAR-3 ovarian
[34] = test system: OVCAR-4 ovarian
[35] = test system: OVCAR-5 ovarian
[36] = test system: OVCAR-8 ovarian
[37] = test system: PC-3 prostate
[38] = test system: RPMI-8226 leukemia
[39] = test system: RXF 393 renal
[40] = test system: SF-268 CNS
[41] = test system: SF-295 CNS
[42] = test system: SF-539 CNS
[43] = test system: SK-MEL-2 melanoma
[44] = test system: SK-MEL-28 melanoma
[45] = test system: SK-MEL-5 melanoma
[46] = test system: SK-OV-3 ovarian
[47] = test system: SN12C renal
[48] = test system: SNB-19 CNS
[49] = test system: SNB-75 CNS
[50] = test system: SR leukemia
[51] = test system: SW-620 colon
[52] = test system: T-47D breast
[53] = test system: TK-10 renal
[54] = test system: U251 CNS
[55] = test system: UACC-257 melanoma
[56] = test system: UACC-62 melanoma
[57] = test system: UO-31 renal
[58] = test system: BT-549 breast

COc1ccc(OC)c(Cn2cc3c(c2-c2ccccc2)CCc2cnoc2-3)c1
56.9 µM: TGI [42]
7.95 µM: TGI [33]
40.3 µM: TGI [45]
9.11 µM: TGI [26]
9.9 µM: TGI [49]
59.2 µM: TGI [43]
inactive: GI50 [1] 6.09 µM | GI50 [2] 2.12 µM | GI50 [3] 5.75 µM | GI50 [4] 6.89 µM | GI50 [5] 4.35 µM | GI50 [6] 4.48 µM | GI50 [7] 6.31 µM | GI50 [8] 17.4 µM | GI50 [9] 6.9 µM | GI50 [10] 8.83 µM | GI50 [11] 4.04 µM | GI50 [12] 4 µM | GI50 [13] 2.03 µM | GI50 [14] 9.13 µM | GI50 [15] 5.26 µM | GI50 [16] 4.95 µM | GI50 [17] 3.15 µM | GI50 [18] 6.11 µM | GI50 [19] 2.67 µM | GI50 [20] 3.61 µM | GI50 [21] 4.92 µM | GI50 [22] 4.82 µM | GI50 [23] 3.7 µM | GI50 [24] 4.47 µM | GI50 [25] 5.98 µM | GI50 [26] 2.18 µM | GI50 [27] 3.95 µM | GI50 [28] 40.8 µM | GI50 [29] 7.99 µM | GI50 [30] 3.3 µM | GI50 [31] 1.74 µM | GI50 [32] 2.48 µM | GI50 [33] 2.7 µM | GI50 [34] 11.3 µM | GI50 [35] 10.8 µM | GI50 [36] 19.2 µM | GI50 [37] 8.73 µM | GI50 [38] 6.54 µM | GI50 [39] 6.12 µM | GI50 [40] 6.24 µM | GI50 [41] 3.19 µM | GI50 [42] 4.24 µM | GI50 [43] 3.71 µM | GI50 [44] 6.8 µM | GI50 [45] 3.7 µM | GI50 [46] 7.48 µM | GI50 [47] 23.8 µM | GI50 [48] 9.43 µM | GI50 [49] 2.89 µM | GI50 [50] 2.62 µM | GI50 [51] 3.69 µM | GI50 [52] 18.1 µM | GI50 [53] 8.01 µM | GI50 [54] 5.38 µM | GI50 [55] 30.7 µM | GI50 [56] 3.8 µM | GI50 [57] 6.38 µM
6.25 µM: TGI [31]
7.55 µM: TGI [32]
6.52 µM: TGI [13]
> 100 µM: TGI [1] | TGI [3] | TGI [4] | TGI [5] | TGI [6] | TGI [7] | TGI [8] | TGI [9] | TGI [10] | TGI [11] | TGI [12] | TGI [14] | TGI [15] | TGI [16] | TGI [17] | TGI [18] | TGI [19] | TGI [20] | TGI [21] | TGI [22] | TGI [23] | TGI [24] | TGI [25] | TGI [27] | TGI [28] | TGI [29] | TGI [30] | TGI [34] | TGI [35] | TGI [36] | TGI [37] | TGI [38] | TGI [39] | TGI [40] | TGI [41] | TGI [44] | TGI [46] | TGI [47] | TGI [48] | TGI [50] | TGI [51] | TGI [52] | TGI [53] | TGI [54] | TGI [55] | TGI [56] | TGI [57]
9.28 µM: TGI [2]

CN(C)c1ccc(-c2ccc(-c3ccc(C(=N)N)cc3)s2)cc1
4.57 µM: TGI [13]
5.45 µM: TGI [32]
5.19 µM: TGI [16]
3.57 µM: TGI [25]
> 100 µM: TGI [28]
3.37 µM: TGI [8]
78.3 µM: TGI [58]
inactive: GI50 [1] 2.21 µM | GI50 [58] 21 µM | GI50 [5] 1.79 µM | GI50 [8] 1.8 µM | GI50 [13] 2.03 µM | GI50 [16] 2.14 µM | GI50 [25] 1.81 µM | GI50 [28] 32.6 µM | GI50 [32] 2.35 µM | GI50 [35] 1.73 µM | GI50 [39] 1.81 µM | GI50 [41] 1.9 µM | GI50 [42] 1.76 µM | GI50 [57] 1.64 µM
3.77 µM: TGI [5]
3.22 µM: TGI [57]
0.0866 µM: TGI [2]
3.61 µM: TGI [41]
3.99 µM: TGI [39]
5.06 µM: TGI [1]
3.38 µM: TGI [35] | TGI [42]
active: GI50 [2] 0.0155 µM
